Results taken from US4804664A, “Method and pharmaceutical preparation for treating chronic obstructive airway disease and cardiac disease, and intermediates for the preparation of therapeutically active xanthine derivatives” (priority 1978, dated 1989).
Entries after “also recorded” stand apart in the source; their conditions may differ. Where two headings read alike, the source gives them in different places.

Columns and labels:
[1] = test system: Guinea-Pig heart; assay: Isolated Guinea-Pig Hearts (Langendorff), chronotropic and inotropic potency; conditions: relative to theophylline (= 1); for Guinea-Pig heart Potency ratios of theophylline, chronotrop: cardioacceleration; for Guinea-Pig heart Potency ratios of theophylline, inotrop: inotropic
Method: From the bled guinea-pigs, the hearts were immediately removed and perfused with oxygenated Krebs solution at 37° according to Langendorff. The heart was mounted in a thermostatically controlled organ bath (25 ml) containing Krebs solution. A saline-filled, open-end polyethylene catheter was inserted into the right ventricle through the pulmonary artery. The catheter was fixed to the pulmonary artery by a ligature just above the valvular plane. It was connected to a pressure transduser (P23 AC), making it possible to record changes in intraventricular pressure. From these, the contraction frequency was obtained. Drugs were given as single bolus injections into the perfusion solution.
Potency ratios for relaxing effects on isolated bronchial smooth muscle, for cardioacceleration and for i.v. acute toxicity are illustrated. The relation between therapeutic ratios for theophylline and each compound is also calculated (column to the right).

[2] = in vivo; conditions: mouse, in vivo, mice; for LD50 at 336 h: iv, i.v.; for selectivity ratio at 336 h: read-out: Ratio LD50 p.o. / LD50 i.v.
Method: (§1) Male NMRI mice, weighing 20-26 g, starved for 8 hr. were used. The compounds, dissolved in 0.5M NaOH and 0.85% NaCl-solution (pH 10.6-12.1) were administered as follows:
(§2) (a) intravenously, 0.1 ml/10 g at an injection rate of 0.3 ml per minute
(§3) At least seven dose levels, doses increasing in a geometric progression with a factor 1.2, were examined. Each dose was given to 5 animals. […] The position of extremities in dead animals indicated whether they had died in convulsions or not. The LD50 values±standard error were calculated using probit analysis.

[3] = test system: mice; assay: in vivo; conditions: for Ratio i.v. LD50 TA/(.): theophylline relative to compound, Table 2; for tonic convulsions: lethal doses
Method: as §1, §2, §3

[4] = in vivo; conditions: mouse, in vivo, po, mice, p.o.
[5] = test system: mice; assay: in vivo; conditions: theophylline relative to compound, Table 2
[6] = theophylline therapy, cited from earlier work
[7] = probit analysis, read-out: LD50 ± SE i.v.
[8] = probit analysis, read-out: LD50 ± SE p.o.

In the case of CCCn1c(=O)[nH]c(=O)c2[nH]cnc21 [D 4028, 3,7-dihydro-3-propyl-1H-purine-2,6-dione], the “Guinea-Pig heart Potency ratios of theophylline, chronotrop” value [1] is reported as 2, the “Guinea-Pig heart Potency ratios of theophylline, inotrop” value [1] is reported as 2.5 and the LD50 at 336 h [2, 7] is reported as 157 ± 7.1 mg/kg. For the same compound, the LD50 at 336 h ([2]; read-out: LD50 i.v.) was 810 µmol/kg, the selectivity ratio at 336 h [2] was 3.1 and the “Ratio i.v. LD50 TA/(.)” value [3] was 1.24. For the same compound, the tonic convulsions [3] was “without convulsive effects”, the LD50 at 336 h [4, 8] was 501 ± 54 mg/kg and the LD50 at 336 h ([4]; read-out: LD50 p.o.) was 2550 µmol/kg. For the same compound, the “Ratio p.o. LD50 TA/(.)” value [5] was 0.87.
With CCCCn1c(=O)[nH]c(=O)c2[nH]cnc21 [D 4031, 3-butyl-3,7-dihydro-1H-purine-2,6-dione] the “Guinea-Pig heart Potency ratios of theophylline, chronotrop” value [1] was 5, the “Guinea-Pig heart Potency ratios of theophylline, inotrop” value [1] was 2 and the LD50 at 336 h [2, 7] was 158 ± 8.8 mg/kg. The LD50 at 336 h ([2]; read-out: LD50 i.v.) was 750 µmol/kg, the selectivity ratio at 336 h [2] was 2.6 and the “Ratio i.v. LD50 TA/(.)” value [3] was 1.35. For the same compound, the tonic convulsions [3] was “without convulsive effects”, the LD50 at 336 h [4, 8] was 408 ± 10.7 mg/kg and the LD50 at 336 h ([4]; read-out: LD50 p.o.) was 1950 µmol/kg. For the same compound, the “Ratio p.o. LD50 TA/(.)” value [5] was 1.14.
For Cn1c(=O)c2[nH]cnc2n(C)c1=O [Theophylline, reference compound], the tonic convulsions [3] is listed as “in lethal doses produced tonic convulsions; also recorded: convulsions which theophylline does”, the major therapeutic effects ([6]; COAD and cardiac disease) is listed as “relax bronchial smooth muscle and stimulate heart muscle” and the toxic side-effects [6] is listed as “most common are nausea and gastric distress, most serious are convulsions, which may lead to death”.
With CC(C)Cn1c(=O)[nH]c(=O)c2[nH]cnc21 [D 4030, 3,7-dihydro-3-(2-methylpropyl)-1H-purine-2,6-dione] the “Guinea-Pig heart Potency ratios of theophylline, chronotrop” value [1] was 5, the “Guinea-Pig heart Potency ratios of theophylline, inotrop” value [1] was 2 and the LD50 at 336 h [2, 7] was 109 ± 5.9 mg/kg. For the same compound, the LD50 at 336 h ([2]; read-out: LD50 i.v.) was 520 µmol/kg, the selectivity ratio at 336 h [2] was 2.8 and the “Ratio i.v. LD50 TA/(.)” value [3] was 1.94. The tonic convulsions [3] was “without convulsive effects”, the LD50 at 336 h [4, 8] was 304 ± 26 mg/kg and the LD50 at 336 h ([4]; read-out: LD50 p.o.) was 1450 µmol/kg. The “Ratio p.o. LD50 TA/(.)” value [5] was 1.53.
